Data taken from PubChem BioAssay (NCI).
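Tested at 5 concentrations; 48 h exposure; 96-well plates; endpoints linearly interpolated, else capped at highest concentration. At the GI50, growth is halved. TGI: total growth inhibition.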

Experiments:
Assay in all cases: NCI anticancer screen, dose series, 48 h
SF-268 CNS = tested on: SF-268 CNS
RXF 393 renal = tested on: RXF 393 renal
HOP-92 NSCLC = tested on: HOP-92 NSCLC
SR leukemia = tested on: SR leukemia
EKVX NSCLC = tested on: EKVX NSCLC
ACHN renal = tested on: ACHN renal
SN12C renal = tested on: SN12C renal
786-0 renal = tested on: 786-0 renal
HL-60(TB) leukemia = tested on: HL-60(TB) leukemia
HS 578T breast = tested on: HS 578T breast
U251 CNS = tested on: U251 CNS
DU-145 prostate = tested on: DU-145 prostate
NCI-H522 lung = tested on: NCI-H522 lung
PC-3 prostate = tested on: PC-3 prostate
MDA-MB-231 breast = tested on: MDA-MB-231 breast
HCT-15 colon = tested on: HCT-15 colon
LOX IMVI melanoma = tested on: LOX IMVI melanoma
SNB-19 CNS = tested on: SNB-19 CNS
SW-620 colon = tested on: SW-620 colon
KM12 colon = tested on: KM12 colon
M14 melanoma = tested on: M14 melanoma
UACC-257 melanoma = tested on: UACC-257 melanoma
T-47D breast = tested on: T-47D breast
UO-31 renal = tested on: UO-31 renal
HCC-2998 colon = tested on: HCC-2998 colon
COLO 205 colon = tested on: COLO 205 colon
SF-539 CNS = tested on: SF-539 CNS
MCF7 breast = tested on: MCF7 breast
RPMI-8226 leukemia = tested on: RPMI-8226 leukemia
SNB-75 CNS = tested on: SNB-75 CNS
A498 renal = tested on: A498 renal
OVCAR-3 ovarian = tested on: OVCAR-3 ovarian
MALME-3M melanoma = tested on: MALME-3M melanoma
HOP-62 NSCLC = tested on: HOP-62 NSCLC
NCI-H226 lung = tested on: NCI-H226 lung
HCT-116 colon = tested on: HCT-116 colon
NCI-H23 lung = tested on: NCI-H23 lung
UACC-62 melanoma = tested on: UACC-62 melanoma
IGROV1 ovarian = tested on: IGROV1 ovarian
NCI-H460 lung = tested on: NCI-H460 lung
SF-295 CNS = tested on: SF-295 CNS
MDA-MB-435 = tested on: MDA-MB-435
TK-10 renal = tested on: TK-10 renal
CAKI-1 renal = tested on: CAKI-1 renal
K-562 leukemia = tested on: K-562 leukemia
HT29 colon = tested on: HT29 colon
SK-MEL-5 melanoma = tested on: SK-MEL-5 melanoma
SK-MEL-28 melanoma = tested on: SK-MEL-28 melanoma
NCI/ADR-RES ovarian = tested on: NCI/ADR-RES ovarian
CCRF-CEM leukemia = tested on: CCRF-CEM leukemia
MOLT-4 leukemia = tested on: MOLT-4 leukemia
OVCAR-8 ovarian = tested on: OVCAR-8 ovarian
SK-MEL-2 melanoma = tested on: SK-MEL-2 melanoma
OVCAR-5 ovarian = tested on: OVCAR-5 ovarian
SK-OV-3 ovarian = tested on: SK-OV-3 ovarian
OVCAR-4 ovarian = tested on: OVCAR-4 ovarian
BT-549 breast = tested on: BT-549 breast
A549 NSCLC = tested on: A549 NSCLC
MDA-N = tested on: MDA-N

For `CC(=O)Nc1ccc(OC(C)=O)cc1`, the GI50 (SF-268 CNS) was less than 0.0103 µM, the TGI (SF-268 CNS) was 46.2 µM and the GI50 (RXF 393 renal) was less than 0.01 µM. It also gave a TGI (RXF 393 renal) of 6.3 µM, a GI50 (HOP-92 NSCLC) of less than 0.0116 µM and a TGI (HOP-92 NSCLC) of 1.81 µM. It also gave a GI50 (SR leukemia) of less than 0.01 µM, a TGI (SR leukemia) of 1.5 µM and a GI50 (EKVX NSCLC) of 3 µM. The TGI (EKVX NSCLC) was greater than 78.7 µM, the GI50 (ACHN renal) was less than 0.01 µM and the TGI (ACHN renal) was 76 µM. The GI50 (SN12C renal) was less than 0.01 µM, the TGI (SN12C renal) was 49.1 µM and the GI50 (786-0 renal) was less than 0.01 µM. The TGI (786-0 renal) was 5.52 µM, the GI50 (HL-60(TB) leukemia) was less than 0.01 µM and the TGI (HL-60(TB) leukemia) was less than 0.01 µM. For the same compound, the GI50 (HS 578T breast) was less than 0.0166 µM, the TGI (HS 578T breast) was 61.5 µM and the GI50 (U251 CNS) was less than 0.01 µM. It also gave a TGI (U251 CNS) greater than 37.7 µM, a GI50 (DU-145 prostate) of less than 0.0105 µM and a TGI (DU-145 prostate) of 0.0172 µM. It also gave a GI50 (NCI-H522 lung) of less than 0.01 µM, a TGI (NCI-H522 lung) of less than 0.01 µM and a GI50 (PC-3 prostate) of less than 0.01 µM. For the same compound, the TGI (PC-3 prostate) was greater than 66.3 µM, the GI50 (MDA-MB-231 breast) was less than 0.01 µM and the TGI (MDA-MB-231 breast) was 2.04 µM. It also gave a GI50 (HCT-15 colon) of less than 0.01 µM, a TGI (HCT-15 colon) of 16.6 µM and a GI50 (LOX IMVI melanoma) of less than 0.01 µM. It also gave a TGI (LOX IMVI melanoma) of 4.14 µM, a GI50 (SNB-19 CNS) of less than 0.0126 µM and a TGI (SNB-19 CNS) greater than 100 µM. The GI50 (SW-620 colon) was less than 0.01 µM, the TGI (SW-620 colon) was greater than 100 µM and the GI50 (KM12 colon) was less than 0.01 µM. It also gave a TGI (KM12 colon) of 12.1 µM, a GI50 (M14 melanoma) of less than 0.01 µM and a TGI (M14 melanoma) of 3.32 µM. For the same compound, the TGI (UACC-257 melanoma) was 29.7 µM, the GI50 (T-47D breast) was 5.74 µM and the TGI (T-47D breast) was greater than 100 µM. It also gave a GI50 (UO-31 renal) of 0.252 µM, a TGI (UO-31 renal) of 26 µM and a GI50 (HCC-2998 colon) of less than 0.0117 µM. For the same compound, the TGI (HCC-2998 colon) was 0.327 µM, the GI50 (COLO 205 colon) was less than 0.01 µM and the TGI (COLO 205 colon) was 0.01 µM. For the same compound, the GI50 (SF-539 CNS) was less than 0.01 µM, the TGI (SF-539 CNS) was 0.766 µM and the GI50 (MCF7 breast) was less than 0.01 µM. For the same compound, the TGI (MCF7 breast) was greater than 74.4 µM, the GI50 (RPMI-8226 leukemia) was less than 0.01 µM and the TGI (RPMI-8226 leukemia) was 9.64 µM. It also gave a GI50 (SNB-75 CNS) of less than 0.01 µM, a TGI (SNB-75 CNS) of 28.6 µM and a GI50 (A498 renal) of less than 0.01 µM. It also gave a TGI (A498 renal) of 0.0488 µM, a GI50 (OVCAR-3 ovarian) of less than 0.01 µM and a TGI (OVCAR-3 ovarian) of less than 0.0134 µM. The GI50 (MALME-3M melanoma) was 0.668 µM, the TGI (MALME-3M melanoma) was 24.5 µM and the GI50 (HOP-62 NSCLC) was less than 0.01 µM. It also gave a TGI (HOP-62 NSCLC) of 14.7 µM, a GI50 (NCI-H226 lung) of less than 0.01 µM and a GI50 (HCT-116 colon) of less than 0.01 µM. The TGI (HCT-116 colon) was 0.204 µM, the GI50 (NCI-H23 lung) was less than 0.01 µM and the TGI (NCI-H23 lung) was 60.3 µM. The GI50 (UACC-62 melanoma) was less than 0.01 µM, the TGI (UACC-62 melanoma) was 12.7 µM and the GI50 (IGROV1 ovarian) was less than 0.0122 µM. It also gave a TGI (IGROV1 ovarian) greater than 48.5 µM, a GI50 (NCI-H460 lung) of less than 0.01 µM and a TGI (NCI-H460 lung) of 16.9 µM. For the same compound, the GI50 (SF-295 CNS) was less than 0.01 µM, the TGI (SF-295 CNS) was 12.4 µM and the GI50 (MDA-MB-435) was less than 0.01 µM. It also gave a TGI (MDA-MB-435) of less than 0.01 µM, a GI50 (TK-10 renal) of 10.7 µM and a TGI (TK-10 renal) greater than 100 µM. For the same compound, the GI50 (CAKI-1 renal) was 0.084 µM, the TGI (CAKI-1 renal) was 28.8 µM and the GI50 (K-562 leukemia) was less than 0.01 µM. The TGI (K-562 leukemia) was greater than 57.2 µM, the GI50 (HT29 colon) was less than 0.01 µM and the TGI (HT29 colon) was 0.776 µM. It also gave a GI50 (SK-MEL-5 melanoma) of less than 0.01 µM, a TGI (SK-MEL-5 melanoma) of less than 0.01 µM and a GI50 (SK-MEL-28 melanoma) of less than 0.01 µM. For the same compound, the TGI (SK-MEL-28 melanoma) was 48 µM, the GI50 (NCI/ADR-RES ovarian) was less than 0.0105 µM and the TGI (NCI/ADR-RES ovarian) was greater than 7.41 µM. The GI50 (CCRF-CEM leukemia) was less than 0.01 µM, the TGI (CCRF-CEM leukemia) was greater than 49.8 µM and the GI50 (MOLT-4 leukemia) was less than 0.01 µM. The TGI (MOLT-4 leukemia) was 3.79 µM, the GI50 (OVCAR-8 ovarian) was less than 0.01 µM and the TGI (OVCAR-8 ovarian) was greater than 49.1 µM. The GI50 (SK-MEL-2 melanoma) was less than 0.01 µM, the TGI (SK-MEL-2 melanoma) was 8.54 µM and the GI50 (OVCAR-5 ovarian) was less than 0.01 µM. The TGI (OVCAR-5 ovarian) was greater than 100 µM, the GI50 (SK-OV-3 ovarian) was less than 0.01 µM and the GI50 (OVCAR-4 ovarian) was less than 0.01 µM. It also gave a TGI (OVCAR-4 ovarian) greater than 91.7 µM, a GI50 (BT-549 breast) of less than 0.01 µM and a TGI (BT-549 breast) of 0.165 µM. The GI50 (A549 NSCLC) was less than 0.01 µM and the TGI (A549 NSCLC) was 30.8 µM.
Compound `COC(=O)CCC(=O)c1ccc2c(c1)CC1(C2)Cc2ccc(C(=O)CCC(=O)OC)cc2C1` has a TGI (RXF 393 renal) greater than 100 µM, a TGI (HOP-92 NSCLC) greater than 100 µM and a TGI (SR leukemia) of 88.5 µM. For the same compound, the TGI (EKVX NSCLC) was greater than 100 µM, the TGI (ACHN renal) was greater than 100 µM and the TGI (SN12C renal) was greater than 100 µM. The TGI (786-0 renal) was greater than 100 µM, the TGI (HL-60(TB) leukemia) was greater than 100 µM and the TGI (HS 578T breast) was greater than 100 µM. For the same compound, the TGI (U251 CNS) was greater than 100 µM, the TGI (NCI-H522 lung) was greater than 100 µM and the TGI (PC-3 prostate) was greater than 100 µM. For the same compound, the TGI (MDA-MB-231 breast) was greater than 100 µM, the TGI (HCT-15 colon) was greater than 100 µM and the TGI (LOX IMVI melanoma) was greater than 100 µM. It also gave a TGI (KM12 colon) greater than 100 µM, a TGI (M14 melanoma) greater than 100 µM and a TGI (UACC-257 melanoma) greater than 100 µM. It also gave a TGI (T-47D breast) greater than 100 µM, a TGI (UO-31 renal) greater than 100 µM and a TGI (HCC-2998 colon) greater than 100 µM. The TGI (COLO 205 colon) was greater than 100 µM, the TGI (SF-539 CNS) was greater than 100 µM and the TGI (MCF7 breast) was greater than 100 µM. The TGI (RPMI-8226 leukemia) was greater than 100 µM, the TGI (SNB-75 CNS) was 0.172 µM and the TGI (A498 renal) was greater than 100 µM. For the same compound, the TGI (OVCAR-3 ovarian) was greater than 100 µM, the TGI (MALME-3M melanoma) was greater than 100 µM and the TGI (HOP-62 NSCLC) was greater than 100 µM. For the same compound, the TGI (HCT-116 colon) was greater than 100 µM, the TGI (NCI-H23 lung) was greater than 100 µM and the TGI (UACC-62 melanoma) was greater than 100 µM. For the same compound, the TGI (IGROV1 ovarian) was greater than 100 µM, the TGI (SF-295 CNS) was greater than 100 µM and the TGI (MDA-MB-435) was greater than 100 µM. For the same compound, the TGI (TK-10 renal) was greater than 100 µM, the TGI (MDA-N) was greater than 100 µM and the TGI (K-562 leukemia) was greater than 100 µM. It also gave a TGI (HT29 colon) greater than 100 µM, a TGI (SK-MEL-5 melanoma) of 61.5 µM and a TGI (NCI/ADR-RES ovarian) greater than 100 µM. It also gave a TGI (CCRF-CEM leukemia) greater than 100 µM, a TGI (MOLT-4 leukemia) greater than 100 µM and a TGI (OVCAR-8 ovarian) greater than 100 µM. For the same compound, the TGI (SK-MEL-2 melanoma) was 61 µM, the TGI (OVCAR-5 ovarian) was greater than 100 µM and the TGI (SK-OV-3 ovarian) was greater than 100 µM. It also gave a TGI (OVCAR-4 ovarian) greater than 100 µM and a TGI (A549 NSCLC) greater than 100 µM.
